The record followed here is US8410090B2, “Heterocyclylamide-substituted thiazoles, pyrroles and thiophenes” (AiCuris GmbH & Co. KG, priority 2005, dated 2013).

The subject of one data set is HCMV. Description: Anti-HCMV cytopathogenicity test (CPE inhibition). It is filed as cell-based, human cytomegalovirus. The settings on record: for EC50: Human betaherpesvirus 5, 144 h, concentration inhibiting CPE by 50% vs untreated virus control, HCMV-infected NHDF cells, M.O.I. 0.001-0.002, 6 days; for SI HCMV (selectivity index = CC50 (NHDF)/EC50 (HCMV)): ratio CC50 (NHDF)/EC50 (HCMV). How it is done: Anti-HCMV (Anti-Human Cytomegalovirus) Cytopathogenicity Tests The test compounds are employed as 50 millimolar (mM) solutions in dimethyl sulphoxide (DMSO). Ganciclovir, foscarnet and cidofovir are used as reference compounds. After addition of in each case 2 μl of the 50, 5, 0.5 and 0.05 mM DMSO stock solutions to 98 μl portions of cell culture medium in row […] for duplicate determinations, 1:2 dilutions are carried out with 50 μl portions of medium up to row 11 of the 96-well plate. The wells in rows 1 and 12 each contain 50 μl of medium. Then 150 μl portions of a suspension of 1×10^4 cells (human prepuce fibroblasts [NHDF]) are pipetted into each of the wells (row 1=cell control) and, in rows 2-12, a mixture of HCMV-infected and uninfected NHDF cells (M.O.I.=0.001-0.002), i.e. 1-2 infected cells per 1000 uninfected cells. Row 12 (without substance) serves as virus control. The final test concentrations are 250-0.0005 μM. The plates are incubated at 37° C./5% CO2 for 6 days, i.e. until all the cells are infected in the virus controls (100% cytopathogenic effect [CPE]). The wells are then fixed and stained by adding a mixture of formalin and Giemsa's dye (30 minutes), washed with double-distilled water and dried in a drying oven at 50° C. The plates are then assessed visually using an overhead microscope (Plaque Multiplier from Technomara). The following data can be acquired from the test plates: EC50 (HCMV)=substance concentration in μM which inhibits the CPE (cytopathic effect) by 50% compared with the untreated virus control; SI (selectivity index)=CC50 (NHDF)/EC50 (HCMV).

A short description of data set [1]: Cytostatic effect on NHDF cells in the anti-HCMV cytopathogenicity test. It is filed as cell-based. The settings on record: human, NHDF cells (human prepuce fibroblasts); maximum concentration with no visible cytostatic effects on NHDF cells vs untreated cell control; 6 days incubation. The protocol: Anti-HCMV (Anti-Human Cytomegalovirus) Cytopathogenicity Tests The test compounds are employed as 50 millimolar (mM) solutions in dimethyl sulphoxide (DMSO). Ganciclovir, foscarnet and cidofovir are used as reference compounds. After addition of in each case 2 μl of the 50, 5, 0.5 and 0.05 mM DMSO stock solutions to 98 μl portions of cell culture medium in row […] for duplicate determinations, 1:2 dilutions are carried out with 50 μl portions of medium up to row 11 of the 96-well plate. The wells in rows 1 and 12 each contain 50 μl of medium. Then 150 μl portions of a suspension of 1×10^4 cells (human prepuce fibroblasts [NHDF]) are pipetted into each of the wells (row 1=cell control) and, in rows 2-12, a mixture of HCMV-infected and uninfected NHDF cells (M.O.I.=0.001-0.002), i.e. 1-2 infected cells per 1000 uninfected cells. Row 12 (without substance) serves as virus control. The final test concentrations are 250-0.0005 μM. The plates are incubated at 37° C./5% CO2 for 6 days, i.e. until all the cells are infected in the virus controls (100% cytopathogenic effect [CPE]). The wells are then fixed and stained by adding a mixture of formalin and Giemsa's dye (30 minutes), washed with double-distilled water and dried in a drying oven at 50° C. The plates are then assessed visually using an overhead microscope (Plaque Multiplier from Technomara). The following data can be acquired from the test plates: CC50 (NHDF)=maximum substance concentration in μM at which no visible cytostatic effects on the cells are evident by comparison with the untreated cell control;

For the compound `CCn1cc(NC(=O)Nc2ccc(OC(F)(F)F)cc2)cc1C(=O)N1CCN(c2ccc(C)cn2)CC1` [Example 4, N-(1-Ethyl-5-{[4-(5-methylpyridin-2-yl)piperazin-1-yl]carbonyl}-1H-pyrrol-3-yl)-N′-[4-(trifluoromethoxy)phenyl]urea], in the data set on HCMV, a half-maximal response (EC50) required 0.0007 µM and the “SI HCMV (selectivity index = CC50 (NHDF)/EC50 (HCMV))” value was 28767. Also, the CC50 at 6 days in data set [1] turned out to be 21 µM.

Turning to `Cc1ccc(N2CCN(C(=O)c3cc(NC(=O)Nc4ccc(OC(F)(F)F)cc4)cs3)CC2)nc1` [Example 9, N-(5-{[4-(5-Methylpyridin-2-yl)piperazin-1-yl]carbonyl}-3-thienyl)-N′-[4-(trifluoromethoxy)-phenyl]urea], in the data set on HCMV, the EC50 was determined as 0.0059 µM and the “SI HCMV (selectivity index = CC50 (NHDF)/EC50 (HCMV))” value is listed as 3559. For the same compound, the CC50 at 6 days in data set [1] was found to be 21 µM.

Regarding `Cc1ccc(N2CCN(C(=O)c3nc(NC(=O)Nc4ccc(OC(F)(F)F)cc4)sc3C)CC2)nc1` [Example 14], in the data set with HCMV, the EC50 was determined as 0.0016 µM and the “SI HCMV (selectivity index = CC50 (NHDF)/EC50 (HCMV))” value amounted to 7333. In data set [1], it took 11 µM to reach half-maximal cytotoxicity (CC50 at 6 days).

Regarding `Cc1ccc(N2CCN(C(=O)c3cnc(NC(=O)Nc4ccc(OC(F)(F)F)cc4)s3)CC2)nc1` [Example 23], in the data set on HCMV, the EC50 worked out at 0.0054 µM and the “SI HCMV (selectivity index = CC50 (NHDF)/EC50 (HCMV))” value was determined as 2637. This compound also displayed a CC50 at 6 days in data set [1] of 11 µM.
